Entries after “also recorded” stand apart in the source; their conditions may differ.
Experiments:
Hela cells [1] = assay: Transfection of GFP-expressing plasmid DNA in Hela cells (flow cytometer); format: cell-based, human; details: plasmid DNA 0.5 μg/well, material 0.25 to 8 μg/well (dosages per FIG. 4), 24 h
Protocol: In this experiment, with GFP-expressing plasmid DNA as a reporter gene, a gene transfection efficiency of a cationic lipid analog material in Hela cells was detected. A specific method was as follows:
Hela cells were inoculated in a 24-well plate and cultured in an incubator for 12 h; each of different cationic lipid analog materials (0.25 μg/well to 8 μg/well) was mixed with GFP-expressing plasmid DNA (0.5 μg/well) in 40 μL of a sodium acetate buffer (25 mM, pH 5.2), and resulting mixtures each were allowed to stand for 10 min and then diluted with 460 μL of an Opti-MEM medium to obtain plasmid DNA-loaded cationic lipid analog complex particle solutions; a medium for the Hela cells in the plate was removed, then the HeLa cells were washed once with PBS, and the complex particle solutions were added; and the cells were cultured for 24 h, and then a plasmid DNA transfection efficiency in cells was analyzed by a flow cytometer. A commercial gene transfection reagent Lipofectamine 2000 was adopted as a positive control.

Hela cells [2] = assay: Transfection of luciferase-expressing plasmid DNA in HeLa cells (luciferase expression); format: cell-based, human; details: plasmid DNA 0.5 μg, 24 h, luciferase expression level, FIG. 5
Protocol: In this example, with luciferase-expressing plasmid DNA as a reporter gene, a gene transfection efficiency of a cationic lipid analog material in HeLa cells was detected. A specific operation method was as follows: Hela cells were inoculated in a 96-well plate and cultured in an incubator for 12 h; each of different cationic lipid analog materials was mixed with luciferase-expressing plasmid DNA (0.5 μg) in 40 μL of a sodium acetate buffer (25 mM, pH 5.2), and resulting mixtures each were allowed to stand for 10 min and then diluted with 460 μL of an Opti-MEM medium to obtain plasmid DNA-loaded cationic lipid analog complex particle solutions; a medium for the Hela cells in the plate was removed, then the Hela cells were washed once with PBS, and the complex particle solutions were added in a volume of 125 μL; the cells were cultured for 24 h, then a resulting culture supernatant was discarded, and the cells were fully lysed; and a substrate was added at 50 μl/well, and an expression level of luciferase was detected by a multi-mode microplate reader.

DC 2.4 cells = assay: Transfection of eGFP-mRNA in DC 2.4 cells (FCM and LSCM); format: cell-based, mouse; details: mRNA 0.2 μg/well, material 0.25 to 2 μg/well (dosages per FIG. 7), 24 h
Protocol: In this experiment, with eGFP-mRNA as model mRNA, an mRNA transfection efficiency of a cationic lipid analog material in DC 2.4 cells was detected. A specific operation method was as follows:
DC 2.4 cells were inoculated in a 48-well plate and cultured in an incubator for 12 h; each of different cationic lipid analog materials (0.25 μg/well to 2 μg/well) was mixed with cGFP-expressing mRNA (0.2 μg/well) in 20 μL of a sodium acetate buffer (25 mM, pH 5.2), and resulting mixtures each were allowed to stand for 10 min and then diluted with 230 μL of a Opti-MEM medium to obtain mRNA-loaded complex particle solutions; a medium for the […] were washed once with PBS, and the complex particle solutions were added; and the cells were cultured for 24 h, an mRNA transfection efficiency in cells was observed by FCM and LSCM. A commercial gene transfection reagent Lipofectamine 2000 was adopted as a positive control.

Row | SMILES | transfection efficiency of GFP-expressing plasmid DNA, compared with commercial transfection reagent Lipofectamine 2000 (Hela cells [1]) | mRNA transfection efficiency (eGFP-mRNA), compared with Lipofectamine 2000 (DC 2.4 cells; FIG. 7-9) | other results
1 | CCCCCCCCCCCCCC(=O)N(CCCN(C)C)C(C(=O)NCCCCCCNC(=O)C(C(C)C)N(CCCN(C)C)C(=O)CCCCCCCCCCCCC)C(C)C (stereo not drawn) [I1R2C14A1] | reaches or is higher than | high transfection efficiency | transfection efficiency of GFP-expressing plasmid DNA, compared with commercial transfection reagent Lipofectamine 2000 (Hela cells [1]; listed as 11R2C14A1): equivalent to or higher than; transfection efficiency of luciferase-expressing plasmid DNA, compared with Lipofectamine 2000 (Hela cells [2]): equivalent to or higher than; mRNA transfection efficiency (eGFP-mRNA), compared with Lipofectamine 2000 (DC 2.4 cells; FIG. 7-9, listed as 11R2C14A1): equivalent to or higher than
2 | CCCCCCCCCCCCCCCC(=O)N(CCCN(C)C)C(C(=O)NCCCCCCNC(=O)C(C(C)C)N(CCCN(C)C)C(=O)CCCCCCCCCCCCCCC)C(C)C (stereo not drawn) [I1R2C16A1] | – | – | mRNA transfection efficiency (eGFP-mRNA), compared with Lipofectamine 2000 (DC 2.4 cells; FIG. 7-9, listed as 11R2C16A1): high transfection efficiency; also recorded: equivalent to or higher than
3 | CCCCCCCC/C=C\CCCCCCCC(=O)N(CCCN(C)C)C(C(=O)NCCCCCCNC(=O)C(C(C)C)N(CCCN(C)C)C(=O)CCCCCCC/C=C\CCCCCCCC)C(C)C (stereo not drawn) [I1R2C18-1A1] | – | – | mRNA transfection efficiency (eGFP-mRNA), compared with Lipofectamine 2000 (DC 2.4 cells; FIG. 7-9, listed as 11R2C18-1A1): high transfection efficiency; also recorded: equivalent to or higher than
4 | CCCCC/C=C\C/C=C\CCCCCCCC(=O)N(CCCN(C)C)C(C(=O)NCCCCCCNC(=O)C(C(C)C)N(CCCN(C)C)C(=O)CCCCCCC/C=C\C/C=C\CCCCC)C(C)C (stereo not drawn) [I1R2C18-2A1] | reaches or is higher than | equivalent to or higher than | transfection efficiency of GFP-expressing plasmid DNA, compared with commercial transfection reagent Lipofectamine 2000 (Hela cells [1]; listed as 11R2C18-2A1): equivalent to or higher than; mRNA transfection efficiency (eGFP-mRNA), compared with Lipofectamine 2000 (DC 2.4 cells; FIG. 7-9, listed as 11R2C18-2A1): high transfection efficiency
5 | CCCCCCCCCCCCCCCCCC(=O)N(CCCN(C)C)C(C(=O)NCCCCCCNC(=O)C(C(C)C)N(CCCN(C)C)C(=O)CCCCCCCCCCCCCCCCC)C(C)C (stereo not drawn) [I1R2C18A1] | – | – | mRNA transfection efficiency (eGFP-mRNA), compared with Lipofectamine 2000 (DC 2.4 cells; FIG. 7-9, listed as 11R2C18A1): high transfection efficiency; also recorded: equivalent to or higher than
6 | CCCCCCCCCCCCCC(=O)N(CCC1CCCN1C)C(C(=O)NCCCCCCNC(=O)C(C(C)C)N(CCC1CCCN1C)C(=O)CCCCCCCCCCCCC)C(C)C (stereo not drawn) [I1R11C14A1] | reaches or is higher than | high transfection efficiency; also recorded: equivalent to or higher than | transfection efficiency of GFP-expressing plasmid DNA, compared with commercial transfection reagent Lipofectamine 2000 (Hela cells [1]; listed as 11R11C14A1): equivalent to or higher than; transfection efficiency of luciferase-expressing plasmid DNA, compared with Lipofectamine 2000 (Hela cells [2]): equivalent to or higher than
7 | CCCCCCCCCCCCCCCC(=O)N(CCC1CCCN1C)C(C(=O)NCCCCCCNC(=O)C(C(C)C)N(CCC1CCCN1C)C(=O)CCCCCCCCCCCCCCC)C(C)C (stereo not drawn) [I1R11C16A1] | – | high transfection efficiency; also recorded: equivalent to or higher than | –
8 | CCCCCCCCCCCCCCCCCC(=O)N(CCC1CCCN1C)C(C(=O)NCCCCCCNC(=O)C(C(C)C)N(CCC1CCCN1C)C(=O)CCCCCCCCCCCCCCCCC)C(C)C (stereo not drawn) [I1R11C18A1] | – | – | mRNA transfection efficiency (eGFP-mRNA), compared with Lipofectamine 2000 (DC 2.4 cells; FIG. 7-9, listed as 11R11C18A1): high transfection efficiency; also recorded: equivalent to or higher than
9 | CCCCCCCCCCCCCC(=O)N(CCN(C)C)C(C(=O)NCCOCCOCCNC(=O)C(C(C)C)N(CCN(C)C)C(=O)CCCCCCCCCCCCC)C(C)C (stereo not drawn) [I2R1C14A1] | reaches or is higher than; also recorded: equivalent to or higher than | high transfection efficiency; also recorded: equivalent to or higher than | transfection efficiency of luciferase-expressing plasmid DNA, compared with Lipofectamine 2000 (Hela cells [2]): equivalent to or higher than
10 | CCCCC/C=C\C/C=C\CCCCCCCC(=O)N(CCN(C)C)C(C(=O)NCCOCCOCCNC(=O)C(C(C)C)N(CCN(C)C)C(=O)CCCCCCC/C=C\C/C=C\CCCCC)C(C)C (stereo not drawn) [I2R1C18-2A1] | reaches or is higher than; also recorded: equivalent to or higher than | – | –
11 | CCCCCCCCCCCCCC(=O)N(CCCN(C)C)C(C(=O)NCCOCCOCCNC(=O)C(C(C)C)N(CCCN(C)C)C(=O)CCCCCCCCCCCCC)C(C)C (stereo not drawn) [I2R2C14A1] | reaches or is higher than; also recorded: equivalent to or higher than | high transfection efficiency; also recorded: equivalent to or higher than | –
12 | CCCCCCCCCCCCCC(=O)N(CCCN(CC)CC)C(C(=O)NCCOCCOCCNC(=O)C(C(C)C)N(CCCN(CC)CC)C(=O)CCCCCCCCCCCCC)C(C)C (stereo not drawn) [I2R3C14A1] | – | high transfection efficiency; also recorded: equivalent to or higher than | –
13 | CCCCCCCCCCCCCC(=O)N(CCC1CCCN1C)C(C(=O)NCCOCCOCCNC(=O)C(C(C)C)N(CCC1CCCN1C)C(=O)CCCCCCCCCCCCC)C(C)C (stereo not drawn) [I2R11C14A1] | reaches or is higher than; also recorded: equivalent to or higher than | high transfection efficiency; also recorded: equivalent to or higher than | –
14 | CCCCCCCCCCCCCCCC(=O)N(CCC1CCCN1C)C(C(=O)NCCOCCOCCNC(=O)C(C(C)C)N(CCC1CCCN1C)C(=O)CCCCCCCCCCCCCCC)C(C)C (stereo not drawn) [I2R11C16A1] | reaches or is higher than; also recorded: equivalent to or higher than | high transfection efficiency; also recorded: equivalent to or higher than | –
15 | CCCCCCCC/C=C\CCCCCCCC(=O)N(CCC1CCCN1C)C(C(=O)NCCOCCOCCNC(=O)C(C(C)C)N(CCC1CCCN1C)C(=O)CCCCCCC/C=C\CCCCCCCC)C(C)C (stereo not drawn) [I2R11C18-1A1] | reaches or is higher than; also recorded: equivalent to or higher than | high transfection efficiency; also recorded: equivalent to or higher than | –
16 | CCCCCCCCCCCCCCCCCC(=O)N(CCC1CCCN1C)C(C(=O)NCCOCCOCCNC(=O)C(C(C)C)N(CCC1CCCN1C)C(=O)CCCCCCCCCCCCCCCCC)C(C)C (stereo not drawn) [I2R11C18A1] | reaches or is higher than; also recorded: equivalent to or higher than | high transfection efficiency; also recorded: equivalent to or higher than | –

Source: patent publication US20240252651A1, “METHOD OF DELIVERING NUCLEIC ACIDS INTO CELLS” (GUANGZHOU LIDE BIOMEDICINE TECHNOLOGY CO., LTD., priority 2021, published 2024)
